Results reported in the CheMixHub viscosity set.
Several values for one entry are separate records, joined by “and”; a condition that tells them apart may be missing. Identical values can stand only once. ± gives the uncertainty stated by the source.

Assay: xn = mol fraction of the nth substance listed

O=C(O)CBr + [Br-].[Br-].[Br-].[Br-].[Sn+4]
viscosity [mPa·s], 101 kPa
Settings	x2 = 0.0895	x2 = 0.2636	x2 = 0.4794	x2 = 0.7268	x2 = 0.9042
313.15 K	3.74 ± 0.13	3.07 ± 0.11	2.48 ± 0.09	2.04 ± 0.07	1.88 ± 0.07
323.15 K	3.12 ± 0.11	2.58 ± 0.09	2.15 ± 0.08	1.78 ± 0.07	1.65 ± 0.06

CCCC[P+](CCCC)(CCCC)CCCC.CS(=O)(=O)[O-] + c1c[nH]cn1
101.33 kPa, x1 = 0.5
Settings	viscosity [mPa·s]
313.05 K	99.81 ± 21
323.05 K	61.32 ± 12

Cc1ccc(S(=O)(=O)O)cc1 + c1c[nH]cn1
viscosity, 101.33 kPa
Settings	303.11 K	303.14 K	313.12 K	313.14 K	323.13 K	323.14 K
x2 = 0.78	43.59 ± 4.6 mPa·s	–	27.71 ± 2.9 mPa·s	–	18.65 ± 1.9 mPa·s	–
x2 = 0.8	54.18 ± 5.6 mPa·s	41.78 ± 4.3 mPa·s	34.32 ± 3.7 mPa·s	26.53 ± 2.7 mPa·s	–	20.96 ± 2.2 mPa·s and 17.62 ± 1.8 mPa·s

C1CCOC1 + c1ccccc1
303.15 K, 101.33 kPa
Settings	viscosity [mPa·s]
x1 = 0.0997	0.547 ± 0.005
x1 = 0.1996	0.536 ± 0.005
x1 = 0.3017	0.524 ± 0.005
x1 = 0.3993	0.514 ± 0.005
x1 = 0.5018	0.504 ± 0.005
x1 = 0.6038	0.495 ± 0.005
x1 = 0.7011	0.484 ± 0.005
x1 = 0.8026	0.471 ± 0.004
x1 = 0.8977	0.457 ± 0.004

CC1COC(=O)O1 (centres undefined) + c1ccccc1
viscosity [mPa·s]
Settings	298.15 K	303.15 K	308.15 K
101 kPa, x1 = 0.0191	0.6193 ± 0.025	–	0.5377 ± 0.022
101 kPa, x1 = 0.0416	0.6341 ± 0.025	–	0.5545 ± 0.023
101 kPa, x1 = 0.0585	0.6458 ± 0.026	–	0.5677 ± 0.023
101 kPa, x1 = 0.0771	0.6595 ± 0.026	–	0.5824 ± 0.024
101 kPa, x1 = 0.103	0.6758 ± 0.027	–	0.6037 ± 0.024
101 kPa, x1 = 0.1982	0.7426 ± 0.029	–	0.6908 ± 0.027
101 kPa, x1 = 0.2949	0.8478 ± 0.032	–	0.7937 ± 0.031
101 kPa, x1 = 0.3972	0.9876 ± 0.037	–	0.9193 ± 0.035
101 kPa, x1 = 0.4938	1.145 ± 0.042	–	1.055 ± 0.039
101 kPa, x1 = 0.5987	1.346 ± 0.049	–	1.221 ± 0.044
101 kPa, x1 = 0.7002	1.571 ± 0.056	–	1.402 ± 0.05
101 kPa, x1 = 0.7907	1.799 ± 0.063	–	1.582 ± 0.056
101 kPa, x1 = 0.9024	2.119 ± 0.073	–	1.826 ± 0.064
101.3 kPa, x1 = 0.1049	–	0.616 ± 0.011	–
101.3 kPa, x1 = 0.2087	–	0.7019 ± 0.012	–
101.3 kPa, x1 = 0.3114	–	0.798 ± 0.014	–
101.3 kPa, x1 = 0.4131	–	0.9074 ± 0.015	–
101.3 kPa, x1 = 0.5136	–	1.035 ± 0.017	–
101.3 kPa, x1 = 0.6131	–	1.194 ± 0.02	–
101.3 kPa, x1 = 0.7109	–	1.379 ± 0.023	–
101.3 kPa, x1 = 0.8083	–	1.599 ± 0.026	–
101.3 kPa, x1 = 0.9046	–	1.853 ± 0.03	–
